The results in this text go back to patent US10399932B2, “Inhibitors of indoleamine-2,3-dioxygenase for the treatment of cancer” (BRISTOL-MYERS SQUIBB COMPANY, priority 2015, dated 2019).

The structures appear in SMILES notation.

Chain of human IDO1 (P14902 whole entry): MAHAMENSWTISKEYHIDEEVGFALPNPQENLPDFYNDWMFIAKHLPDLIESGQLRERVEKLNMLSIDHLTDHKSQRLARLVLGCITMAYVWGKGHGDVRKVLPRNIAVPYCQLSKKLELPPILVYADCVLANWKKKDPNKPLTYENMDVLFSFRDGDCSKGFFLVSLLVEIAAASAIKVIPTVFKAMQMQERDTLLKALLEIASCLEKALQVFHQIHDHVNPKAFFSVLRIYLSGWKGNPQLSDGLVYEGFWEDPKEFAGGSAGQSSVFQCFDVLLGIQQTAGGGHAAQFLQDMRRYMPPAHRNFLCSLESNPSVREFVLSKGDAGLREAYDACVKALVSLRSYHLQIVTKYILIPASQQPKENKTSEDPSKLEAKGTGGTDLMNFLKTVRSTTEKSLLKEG

The assay has as its target human IDO1 (Homo sapiens, UniProt P14902). Nature of the assay: Assessment of human IDO-1 inhibitory activity in HEK cells (human IDO1/HEK293 cells, Ehrlich reagent, absorbance at 490 nm). It counts as cell-based. The arrangement: expressed in transfected cells. The note with it: In Vitro Potency in the HEK Human IDO-1 Cellular Assay. As to the method:
Exemplary compounds were tested for inhibition of IDO activity.
HEK293 cells were transfected with a pCDNA-based mammalian expression vector harboring human IDO1 cDNA (NM 002164.2) by electroporation. They were cultured in medium (DMEM with 10% FBS) containing 1 mg/ml G418 for two weeks. Clones of HEK293 cells that stably expressed human IDO1 protein were selected and expanded for IDO inhibition assay.
The human IDO1/HEK293 cells were seeded at 10,000 cells per 50 μL per well with RPMI/phenol red free media contains 10% FBS in a 384-well black wall clear bottom tissue culture plate (Matrix Technologies LLC) 100 nL of certain concentration of compound was then added to each well using ECHO liquid handling systems. The cells were incubated for 20 hours in 37° C. incubator with 5% CO2.
The compound treatments were stopped by adding trichloroacetic acid (Sigma-Aldrich) to a final concentration at 0.2%. The cell plate was further incubated at 50° C. for 30 minute. The equal volume supernatant (20 μL) and 0.2% (w/v) Ehrlich reagent (4-dimethylaminobenzaldehyde, Sigma-Aldrich) in glacial acetic acid were mixed in a new clear bottom 384-well plate. This plate was then incubated at room temperature for 30 minute. The absorbance at 490 nm was measured on Envision plate reader.
Compound IC50 values were calculated using the counts of 500 nM of a reference standard treatment as one hundred percent inhibition, and counts of no compound but DMSO treatment as zero percent inhibition.
`CCc1ccc(Nc2cc(C(C)CC(=O)O)ccc2N2C[C@@H](C)O[C@@H](C)C2)cc1` (single isomer, unassigned) [Example 746] yielded an IC50 of more than 50 nM.
For `CCOc1ncc(Nc2cc(C(C)CC(=O)O)ccc2N2C[C@@H](C)O[C@@H](C)C2)cn1` (single isomer, unassigned) [Example 748], the IC50 is more than 50 nM.
The molecule `CCC(CC(=O)O)c1ccc(N2C[C@@H](C)O[C@@H](C)C2)c(Nc2ccc3nc(C)sc3c2)c1` (single isomer, unassigned) [Example 757] came in with a concentration for half-maximal inhibition (IC50) of more than 50 nM.
Regarding `CCC(CC(=O)O)c1ccc(N2C[C@@H](C)O[C@@H](C)C2)c(Nc2ccc(F)cc2)c1` (single isomer, unassigned) [Example 759], the half-inhibitory concentration (IC50) was more than 50 nM.
Under `CCC(CC(=O)O)c1ccc(N2CCC[C@@H]2C(C)(C)O)c(NC(=O)Nc2ccc(F)cc2)c1` (single isomer, unassigned) [Example 775] stands more than 50 nM; under `CCC(CC(=O)O)c1ccc(N2CCC[C@@H]2C(C)(C)O)c(NC(=O)Nc2ccc(Cl)cc2F)c1` (single isomer, unassigned) [Example 776], more than 50 nM.
The molecule `CCC(CC(=O)O)c1ccc(N2CCC[C@@H]2C(C)(C)O)c(NC(=O)Nc2ccc(OC)cc2)c1` (single isomer, unassigned) [Example 777] registered a 50% inhibitory concentration (IC50) of more than 50 nM.
Under `CCOc1ccc(NC(=O)Nc2cc(C(CC)CC(=O)O)ccc2N2CCC[C@@H]2C(C)(C)O)cc1` (single isomer, unassigned) [Example 778] stands more than 50 nM; under `CCC(CC(=O)O)c1ccc(N2CCC[C@@H]2C(C)(C)O)c(NC(=O)Nc2ccc(C)cc2)c1` (single isomer, unassigned) [Example 779], more than 50 nM.
In turn, `CC(CC(=O)O)c1ccc(N2CCC[C@H]2C(C)(C)O)c(Nc2ccc(C#N)cc2)c1` (single isomer, unassigned) [Example 802] gave an IC50 of more than 50 nM.
For the molecule `CC(CC(=O)O)c1ccc(N2CCC[C@H]2C(C)(C)O)c(Nc2ccc(F)cc2)c1` (single isomer, unassigned) [Example 803], the half-maximal inhibitory concentration (IC50) is more than 50 nM.
The molecule `COc1ncc(Nc2cc(C(C)CC(=O)O)ccc2N2CCC[C@H]2C(C)(C)O)cn1` (single isomer, unassigned) [Example 805] came in with an IC50 of more than 50 nM.
The molecule `CCOc1ncc(Nc2cc(C(C)CC(=O)O)ccc2N2CCC[C@H]2C(C)(C)O)cn1` (single isomer, unassigned) [Example 806] came in with an IC50 of more than 50 nM.
Under `CCC(CC(=O)O)c1ccc(N2CCC[C@H]2C(C)(C)O)c(NC(=O)Nc2ccc(OC)cc2)c1` (single isomer, unassigned) [Example 827] stands more than 50 nM; under `CCC(CC(=O)O)c1ccc(N2CCC[C@H]2C(C)(C)O)c(NC(=O)Nc2ccc(Cl)cc2F)c1` (single isomer, unassigned) [Example 828], more than 50 nM.
As for `CCC(CC(=O)O)c1ccc(N2CCC[C@H]2C(C)(C)O)c(NC(=O)Nc2ccc(F)cc2)c1` (single isomer, unassigned) [Example 829], the IC50 is more than 50 nM.
`CCC(CC(=O)O)c1ccc(N2CCC[C@H]2C(C)(C)O)c(NC(=O)Nc2ccc(OC)cc2F)c1` (single isomer, unassigned) [Example 830] returned an IC50 of more than 50 nM.
For `CCC(CC(=O)O)c1ccc(N2CCC[C@H]2C(C)(C)O)c(Nc2ccnc(N3CCOCC3)n2)c1` (single isomer, unassigned) [Example 832], the half-maximal inhibitory concentration (IC50) is more than 50 nM.
As for `CCC(CC(=O)O)c1ccc(N2CCC[C@H]2C(C)(C)O)c(Nc2ccc(OCC3CC3)cc2)c1` (single isomer, unassigned) [Example 834], the IC50 was more than 50 nM.
With `CCc1ccc(Nc2cc(C(CC)CC(=O)O)ccc2N2CCC[C@H]2C(C)(C)O)cc1` (single isomer, unassigned) [Example 835], the half-inhibitory concentration (IC50) is more than 50 nM.
`CCC(CC(=O)O)c1ccc(N2CCC[C@H]2C(C)(C)O)c(Nc2cnc(OCC3CC3)nc2)c1` (single isomer, unassigned) [Example 838] showed a half-inhibitory concentration (IC50) of more than 50 nM.
`CCC(CC(=O)O)c1ccc(N2CCC[C@H]2C(C)(C)O)c(Nc2cnc(OC)nc2)c1` (single isomer, unassigned) [Example 841] showed a 50% inhibitory concentration (IC50) of more than 50 nM.
In the case of `CCC(CC(=O)O)c1ccc(N2CCOC[C@H]2C(C)C)c(NC(=O)Nc2ccc(C)cc2)c1` (single isomer, unassigned) [Example 907] it was more than 50 nM; in that of `CCC(CC(=O)O)c1ccc(N2CCOC[C@H]2C(C)C)c(NC(=O)Nc2ccc(Cl)cc2F)c1` (single isomer, unassigned) [Example 908], less than 50 nM.
For the molecule `Cc1ccc(NC(=O)Nc2cc(C(C)CC(=O)O)c(F)cc2N(CC(C)C)C2CCCCC2)cc1` (single isomer, unassigned) [Example 957, 3-(4-(Cyclohexyl(isobutyl)amino)-2-fluoro-5-(3-(p-tolyl)ureido)phenyl)butanoic acid], the IC50 is less than 5 nM.
Regarding `CC(C)CN(c1ccc(C(C)CC(=O)O)cc1NC(=O)Nc1cncnc1)C1CCOCC1` (single isomer, unassigned) [Example 964, 3-(4-(isobutyl(tetrahydro-2H-pyran-4-yl)amino)-3-(3-(pyrimidin-5-yl)ureido)phenyl) butanoic acid], the half-inhibitory concentration (IC50) was more than 50 nM.
With `Cc1ccc(NC(=O)Nc2cc(C(C)CC(=O)O)ccc2N(CC(C)C)C2CCOCC2)cc1` (single isomer, unassigned) [Example 965, 3-(4-(isobutyl(tetrahydro-2H-pyran-4-yl)amino)-3-(3-(p-tolyl)ureido)phenyl)butanoic acid], the IC50 was less than 50 nM.
In the case of `CCC(CC(=O)O)c1cc(F)c(N(CC(C)C)CC(C)C)c(NC(=O)Cc2ccc(C)cc2)c1` (single isomer, unassigned) [Example 980-2] it was less than 5 nM; in that of `CCC(CC(=O)O)c1cc(F)c(N(CC(C)C)CC(C)C)c(NC(=O)Nc2ccc(Cl)cc2F)c1` (single isomer, unassigned) [Example 981-2], less than 5 nM; in that of `CCC(CC(=O)O)c1cc(F)c(N(CC(C)C)CC(C)C)c(NC(=O)Nc2ccc(C)c(F)c2)c1` (single isomer, unassigned) [Example 982-2], less than 5 nM.
With `COCC(CC(=O)O)c1ccc(N(CC(C)C)C2CCCCC2)c(NC(=O)Nc2ccc(Cl)cc2F)c1` (single isomer, unassigned) [Example 985-2], the concentration for half-maximal inhibition (IC50) was less than 5 nM.
Under `COCC(CC(=O)O)c1ccc(N(CC(C)C)C2CCCCC2)c(NC(=O)Nc2cc(C)on2)c1` (single isomer, unassigned) [Example 987-2] stands less than 50 nM.
Turning to `COCC(CC(=O)O)c1ccc(N(CC(C)C)C2CCCCC2)c(NC(=O)Nc2ccc(C)cc2)c1` (single isomer, unassigned) [Example 989-2], the IC50 is less than 5 nM.
Under `COCC(CC(=O)O)c1ccc(N(CC(C)C)CC(C)C)c(NC(=O)Nc2ccc(C)cc2)c1` (single isomer, unassigned) [Example 993-2] stands less than 50 nM; under `COCC(CC(=O)O)c1ccc(N(CC(C)C)CC(C)C)c(NC(=O)Nc2ccc(Cl)cc2F)c1` (single isomer, unassigned) [Example 995-2], less than 5 nM.
`COCC(CC(=O)O)c1ccc(N(CC(C)C)CC(C)C)c(NC(=O)Nc2cc(C)on2)c1` (single isomer, unassigned) [Example 999-2] had a 50% inhibitory concentration (IC50) of less than 50 nM.
